Measurements reported in US8552002B2 (Novartis AG, priority 2004, dated 2013).

Tests used:
[1] = target: T1, wild type Bcr-abl (Homo sapiens, UniProt P00519); assay: Antiproliferative effect on cells expressing wild type Bcr-abl; format: cell-based; conditions: cell proliferation
T1 construct: the major C-terminal part (exons 2-11) of the c-abl gene; expressed in transfected cells; host or cells: murine 32D (32D-p210) or Ba/F3 cells; the other entry of the earlier key: BCR (P11274, Breakpoint cluster region protein)
Experimental: 32D-p210 cells are plated into 96 well TC plates at a density of 15,000 cells per well. 50 μL of two fold serial dilutions of the test compound (Cmax is 40 μM) are added to each well (STI571 is included as a positive control). After incubating the cells for 48 hours at 37° C., 5% CO2, 15 μL of MTT (Promega) is added to each well and the cells are incubated for an additional 5 hours. The optical density at 570 nm is quantified spectrophotometrically and IC50 values, the concentration of compound required for 50% inhibition, determined from a dose response curve.
Compounds of the invention are tested for their antiproliferative effect on Ba/F3 cells expressing either wild type or the mutant forms of BCR-Abl (G250E, E255V, T315I, F317L, M351T) that confers resistance or diminished sensitivity to STI571. The antiproliferative effect of these compounds on the mutant-BCR-Abl expressing cells and on the non transformed cells were tested at 10, 3.3, 1.1 and 0.37 μM as described above (in media lacking IL3). The IC50 values of the compounds lacking toxicity on the untransformed cells were determined from the dose response curves obtained as describe above.

[2] = target: T2, SAPK2α (Homo sapiens, UniProt Q16539); assay: Upstate KinaseProfiler radio-enzymatic filter binding assay; format: biochemical; conditions: read-out: percentage inhibition of SAPK2α
T2 construct: purchased Upstate (KinaseProfiler panel)
Experimental: Compounds of the invention are assessed for their ability to inhibit individual members of a panel of kinases (a partial, non-limiting list of kinases includes: Abl, BCR-Abl, BMX, FGFR35, Lck, JNK1, JNK2, CSK, RAF, MKK6 and P38). The compounds are tested in duplicates at a final concentration of 10 μM following this generic protocol. Note that the kinase buffer composition and the substrates vary for the different kinases included in the “Upstate KinaseProfiler™” panel. Kinase buffer (2.5 μL, 10×—containing MnCl2 when required), active kinase (0.001-0.01 Units; 2.5 μL), specific or Poly(Glu4-Tyr) peptide (5-500 μM or 0.01 mg/ml) in kinase buffer and kinase buffer (50 μM; 5 μL) are mixed in an eppendorf on ice. A Mg/ATP mix (10 μL; 67.5 (or 33.75) mM MgCl2, 450 (or 225) μM ATP and 1 μCi/μl [γ-^32P]-ATP (3000 Ci/mmol)) is added and the reaction is incubated at about 30° C. for about 10 minutes. The reaction mixture is spotted (20 μL) onto a 2 cm×2 cm P81 (phosphocellulose, for positively charged peptide substrates) or Whatman No. 1 (for Poly (Glu4-Tyr) peptide substrate) paper square. The assay squares are washed 4 times, for 5 minutes each, with 0.75% phosphoric acid and washed once with acetone for 5 minutes. The assay squares are transferred to a scintillation vial, 5 ml scintillation cocktail are added and ^32P incorporation (cpm) to the peptide substrate is quantified with a Beckman scintillation counter. Percentage inhibition is calculated for each reaction.

[3] = target: T3, FGFR35 (Homo sapiens, UniProt P22607); assay: FGFR35 (enzymatic assay), HTRF; format: biochemical; parameters: purchased Upstate; conditions: purified FGFR35, 3 μM ATP; read-out: IC50 for the FGFR35 enzyme assay
Experimental: Kinase activity assay with purified FGFR35 (Upstate) is carried out in a final volume of 10 μL containing 0.25 μg/mL of enzyme in kinase buffer (30 mM Tris-HCl pH7.5, 15 mM MgCl2, 4.5 mM MnCl2, 15 μM Na3VO4 and 50 μg/mL BSA), and substrates (5 μg/mL biotin-poly-EY(Glu, Tyr) (CIS-US, Inc.) and 3 μM ATP). Two solutions are made: the first solution of 5 μl contains the FGFR35 enzyme in kinase buffer was first dispensed into 384—format ProxiPlate® (Perkin-Elmer) followed by adding 50 nL of compounds dissolved in DMSO, then 5 μl of second solution contains the substrate (poly-EY) and ATP in kinase buffer was added to each wells. The reactions are incubated at room temperature for one hour, stopped by adding 10 μL of HTRF detection mixture, which contains 30 mM Tris-HCl pH7.5, 0.5 M KF, 50 mM ETDA, 0.2 mg/mL BSA, 15 μg/mL streptavidin-XL665 (CIS-US, Inc.) and 150 ng/mL cryptate conjugated anti-phosphotyrosine antibody (CIS-US, Inc.). After one hour of room temperature incubation to allow for streptavidin-biotin interaction, time resolved florescent signals are read on Analyst GT (Molecular Devices Corp.). IC50 values are calculated by linear regression analysis of the percentage inhibition of each compound at 12 concentrations (1:3 dilution from 50 μM to 0.28 nM).
Target sequence in this assay (P22607 23-806): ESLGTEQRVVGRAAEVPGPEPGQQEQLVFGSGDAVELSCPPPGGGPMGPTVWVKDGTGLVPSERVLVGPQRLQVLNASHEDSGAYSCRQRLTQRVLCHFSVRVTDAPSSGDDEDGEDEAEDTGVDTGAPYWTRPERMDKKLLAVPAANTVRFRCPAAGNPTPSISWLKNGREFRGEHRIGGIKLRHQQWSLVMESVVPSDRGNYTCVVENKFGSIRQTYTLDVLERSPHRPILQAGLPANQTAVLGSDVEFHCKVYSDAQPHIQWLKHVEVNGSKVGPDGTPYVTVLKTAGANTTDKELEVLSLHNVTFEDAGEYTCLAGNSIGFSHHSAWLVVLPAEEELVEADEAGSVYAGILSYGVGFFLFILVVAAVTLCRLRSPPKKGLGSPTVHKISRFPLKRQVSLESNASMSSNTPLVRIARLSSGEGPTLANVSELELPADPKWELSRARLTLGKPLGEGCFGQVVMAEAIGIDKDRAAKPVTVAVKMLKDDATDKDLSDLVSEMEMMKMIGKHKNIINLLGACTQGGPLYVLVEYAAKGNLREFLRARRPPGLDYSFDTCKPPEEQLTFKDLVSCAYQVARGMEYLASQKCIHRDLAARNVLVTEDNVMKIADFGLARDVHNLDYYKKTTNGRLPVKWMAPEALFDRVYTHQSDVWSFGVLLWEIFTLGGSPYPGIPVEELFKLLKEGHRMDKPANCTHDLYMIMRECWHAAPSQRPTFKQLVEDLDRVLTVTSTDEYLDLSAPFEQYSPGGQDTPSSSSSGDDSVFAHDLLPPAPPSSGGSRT

[4] = target: T3, FGFR35; assay: Upstate KinaseProfiler radio-enzymatic filter binding assay; format: biochemical; parameters: purchased Upstate; conditions: read-out: percentage inhibition of FGFR35
Experimental: Compounds of the invention are assessed for their ability to inhibit individual members of a panel of kinases (a partial, non-limiting list of kinases includes: Abl, BCR-Abl, BMX, FGFR35, Lck, JNK1, JNK2, CSK, RAF, MKK6 and P38). The compounds are tested in duplicates at a final concentration of 10 μM following this generic protocol. Note that the kinase buffer composition and the substrates vary for the different kinases included in the “Upstate KinaseProfiler™” panel. Kinase buffer (2.5 μL, 10×—containing MnCl2 when required), active kinase (0.001-0.01 Units; 2.5 μL), specific or Poly(Glu4-Tyr) peptide (5-500 μM or 0.01 mg/ml) in kinase buffer and […] are mixed in an eppendorf on ice. A Mg/ATP mix (10 μL; 67.5 (or 33.75) mM MgCl2, 450 (or 225) μM ATP and 1 μCi/μl [γ-^32P]-ATP (3000 Ci/mmol)) is added and the reaction is incubated at about 30° C. for about 10 minutes. […] The assay squares are transferred to a scintillation vial, 5 ml scintillation cocktail are added and ^32P incorporation (cpm) to the peptide substrate is quantified with a Beckman scintillation counter. Percentage inhibition is calculated for each reaction.
Target sequence in this assay (P22607 23-806): as above

[5] = target: T3, FGFR35; assay: FGFR35 (cellular assay), proliferation of Ba/F3-TEL-FGFR35 cells; format: cell-based; parameters: fused on or other part: N-terminal part of TEL (ETV6), which acts as the oligomerising partner; it is fused to the part of FGFR3 that carries the kinase; P41212 (Transcription factor ETV6); conditions: 48 hours, read-out: IC50 for the FGFR35 cellular assay
Experimental: Compounds of the invention are tested for their ability to inhibit transformed Ba/F3-TEL-FGFR35 cells proliferation, which is depended on FGFR35 cellular kinase activity. Ba/F3-TEL-FGFR35 are cultured up to 800,000 cells/mL in suspension, with RPMI 1640 supplemented with 10% fetal bovine serum as the culture medium. Cells are dispensed into 384-well format plate at 5000 cell/well in 50 μL culture medium. Compounds of the invention are dissolved and diluted in dimethylsulfoxide (DMSO). Twelve points 1:3 serial dilutions are made into DMSO to create concentrations gradient ranging typically from 10 mM to 0.05 μM. Cells are added with 50 nL of diluted compounds and incubated for 48 hours in cell culture incubator. AlamarBlue® (TREK Diagnostic Systems), which can be used to monitor the reducing environment created by proliferating cells, are added to cells at final concentration of 10%. After additional four hours of incubation in a 37° C. cell culture incubator, fluorescence signals from reduced AlamarBlue® (Excitation at 530 nm, Emission at 580 nm) are quantified on Analyst GT (Molecular Devices Corp.). IC50 values are calculated by linear regression analysis of the percentage inhibition of each compound at 12 concentrations.
Target sequence in this assay (P22607 472-761 limits assumed, stated change not applied): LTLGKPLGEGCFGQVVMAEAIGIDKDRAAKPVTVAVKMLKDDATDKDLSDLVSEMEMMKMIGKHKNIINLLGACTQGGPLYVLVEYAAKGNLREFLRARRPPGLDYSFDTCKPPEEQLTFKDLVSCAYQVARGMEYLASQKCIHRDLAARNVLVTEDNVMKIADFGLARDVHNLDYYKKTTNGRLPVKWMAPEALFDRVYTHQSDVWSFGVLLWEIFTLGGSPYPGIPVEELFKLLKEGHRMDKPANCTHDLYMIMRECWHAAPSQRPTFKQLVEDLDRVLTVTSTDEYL

T1 sequence (P00519 with tags, fused parts or gaps): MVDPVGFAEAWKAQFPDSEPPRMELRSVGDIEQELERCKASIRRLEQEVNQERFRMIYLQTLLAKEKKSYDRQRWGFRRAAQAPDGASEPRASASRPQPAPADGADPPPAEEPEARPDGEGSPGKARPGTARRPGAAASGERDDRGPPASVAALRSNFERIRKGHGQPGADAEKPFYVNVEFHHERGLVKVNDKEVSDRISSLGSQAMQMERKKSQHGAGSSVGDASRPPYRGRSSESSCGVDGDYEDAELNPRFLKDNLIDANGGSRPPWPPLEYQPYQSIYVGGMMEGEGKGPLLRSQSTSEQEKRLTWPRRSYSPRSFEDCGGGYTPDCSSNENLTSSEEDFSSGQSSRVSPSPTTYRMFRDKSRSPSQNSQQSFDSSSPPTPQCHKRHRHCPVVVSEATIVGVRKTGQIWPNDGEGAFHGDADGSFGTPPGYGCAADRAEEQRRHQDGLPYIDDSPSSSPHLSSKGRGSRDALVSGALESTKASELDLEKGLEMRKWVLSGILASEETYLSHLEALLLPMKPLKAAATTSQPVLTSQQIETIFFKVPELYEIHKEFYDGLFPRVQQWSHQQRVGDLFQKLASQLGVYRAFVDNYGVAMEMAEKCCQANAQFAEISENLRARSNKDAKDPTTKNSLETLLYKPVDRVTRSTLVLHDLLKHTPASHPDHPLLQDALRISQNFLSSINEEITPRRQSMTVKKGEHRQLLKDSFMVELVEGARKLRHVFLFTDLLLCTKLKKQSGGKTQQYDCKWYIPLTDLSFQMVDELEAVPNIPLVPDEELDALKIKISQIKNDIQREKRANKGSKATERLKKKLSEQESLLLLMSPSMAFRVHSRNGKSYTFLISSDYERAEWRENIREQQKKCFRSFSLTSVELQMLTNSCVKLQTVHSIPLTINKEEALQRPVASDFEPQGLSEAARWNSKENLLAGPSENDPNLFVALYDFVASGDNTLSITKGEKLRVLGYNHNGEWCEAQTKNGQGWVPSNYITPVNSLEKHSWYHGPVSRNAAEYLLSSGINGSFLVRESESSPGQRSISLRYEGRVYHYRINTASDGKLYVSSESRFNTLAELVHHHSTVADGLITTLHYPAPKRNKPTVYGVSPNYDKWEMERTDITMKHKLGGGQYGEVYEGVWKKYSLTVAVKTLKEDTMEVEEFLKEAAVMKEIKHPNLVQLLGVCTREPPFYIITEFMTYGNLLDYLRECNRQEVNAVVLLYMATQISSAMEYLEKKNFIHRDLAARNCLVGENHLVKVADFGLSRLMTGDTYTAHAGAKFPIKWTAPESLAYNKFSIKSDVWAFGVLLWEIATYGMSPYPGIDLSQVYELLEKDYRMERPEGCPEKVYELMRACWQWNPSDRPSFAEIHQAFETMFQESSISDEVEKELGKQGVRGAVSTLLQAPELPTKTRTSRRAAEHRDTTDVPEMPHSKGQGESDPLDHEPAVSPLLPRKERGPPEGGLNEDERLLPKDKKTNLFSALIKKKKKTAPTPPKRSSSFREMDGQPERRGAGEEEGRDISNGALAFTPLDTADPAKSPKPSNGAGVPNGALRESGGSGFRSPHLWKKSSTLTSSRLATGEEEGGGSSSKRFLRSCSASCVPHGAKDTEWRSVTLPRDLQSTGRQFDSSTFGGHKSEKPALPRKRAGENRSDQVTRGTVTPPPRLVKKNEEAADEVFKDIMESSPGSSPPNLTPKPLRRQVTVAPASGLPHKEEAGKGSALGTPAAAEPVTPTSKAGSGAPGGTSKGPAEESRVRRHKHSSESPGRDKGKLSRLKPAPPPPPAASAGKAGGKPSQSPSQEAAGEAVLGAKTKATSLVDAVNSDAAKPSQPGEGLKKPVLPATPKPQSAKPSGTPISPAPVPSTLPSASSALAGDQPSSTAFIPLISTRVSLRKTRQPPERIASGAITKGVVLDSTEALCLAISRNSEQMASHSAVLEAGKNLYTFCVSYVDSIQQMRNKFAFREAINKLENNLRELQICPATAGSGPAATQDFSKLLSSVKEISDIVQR
T2 sequence (Q16539 whole entry): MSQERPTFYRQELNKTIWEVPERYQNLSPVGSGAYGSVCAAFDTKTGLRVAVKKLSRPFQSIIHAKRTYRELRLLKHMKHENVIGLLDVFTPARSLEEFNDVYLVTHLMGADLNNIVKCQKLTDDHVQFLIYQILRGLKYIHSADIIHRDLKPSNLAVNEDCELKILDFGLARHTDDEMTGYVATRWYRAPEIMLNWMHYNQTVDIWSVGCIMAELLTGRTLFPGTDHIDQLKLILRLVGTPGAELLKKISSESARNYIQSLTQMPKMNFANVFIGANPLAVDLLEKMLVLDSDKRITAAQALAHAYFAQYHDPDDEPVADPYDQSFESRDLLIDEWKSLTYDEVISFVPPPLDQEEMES

Cc1ccc(NC(=O)c2cccc(C(F)(F)F)c2)cc1NC(=O)N(CCCN1CCCC1=O)c1cc(N)ncn1 [Example 215, N-(3-{3-(6-Amino-pyrimidin-4-yl)-3-[3-(2-oxo-pyrrolidin-1-yl)-propyl]-ureido}-4-methyl-phenyl)-3-trifluoromethyl-benzamide] gave an IC50 [1] of 0.01 µM, an inhibition at 10 µM [2] of 99% and an IC50 [3] of 0.016 µM. For the same compound, the inhibition at 10 µM [4] was 99% and the GI50 [5] was 0.015 µM.
